Source: PMC12525728, “Safety, Pharmacokinetics, Translational and Molecular Mechanistic Insights on the Prostate Cancer Recurrence Suppressor Pseurotin A” (Molecules, 2025)
Where “and” joins values, the source holds several entries; their conditions need not be identical. Equal values may be shown once. Read-outs that look alike come from different tables or passages of the source.

How the values were obtained:
[1] = Pharmacokinetics study in Swiss albino mice; assay type: in vivo; details: for C0 / AUC(0-t): iv, 50 mg/kg
Description: Five µL of the IS ([…]) and 20 µL of 50, 40, 30, 20, 10, 8, and 4 µg/mL PsA standard solutions were combined with 15 µL freshly extracted blank mouse plasma. 300 µL of a 70% EtOAc/30% isopropanol mixture was added and vortexed for 30 s. Following centrifugation at 15,000× g for 10 min, the supernatant was transferred to a 2 mL Eppendorf tube for nitrogen evaporation. The residues were reconstituted in 25 µL HPLC-grade MeOH before being subjected to 30 s sonication followed by centrifugation at 15,000× g for 10 min. Afterwards, the entire sample was immediately injected for RP-HPLC analysis. The mouse plasma samples used in the PK study were subjected to the same extraction method, minus the addition of the PsA standard solutions. After weighing, each mouse organ was reconstituted in 500 µL PBS, then homogenized using the MISONIX Sonicator (Division of QSonica LLC, Newtown, CT, USA). Samples were centrifuged at 15,000× g for 10 min, and the supernatant was collected and transferred to a 2 mL Eppendorf. About 5 µL of IS (25 µL/mL) and 300 µL of a 70% EtOAc/30% isopropanol mixture were added to 100 µL of supernatant and vortexed for 30 s. Following centrifugation at 15,000× g for 10 min, the supernatant was transferred to a 2 mL Eppendorf tube and evaporated under N2. The remains were reconstituted in 40 µL HPLC-grade methanol before being subjected to 30 s sonication followed by centrifugation at 15,000× g for 10 min.
The mean plasma concentration-time curve was plotted using GraphPad Prism software version 8.0.2 (La Jolla, CA, USA). PK parameters were obtained through non-compartmental analysis following intravenous bolus input using PK Solver 2.0 [52].
For the PKs study, twelve male and twelve female healthy Swiss albino mice were randomly selected and placed in 3 groups (n = 4/sex/group). The mice received free access to drinking water and pelleted regular rodent chow (5% fat content, Cat# 7012, Envigo/Teklad, Madison, WI, USA) until the day before experimentation, after which they were fasted for 8 h and allowed only free access to drinking water. Mice were administered PsA formulated in sterile PBS-DMSO (925:75) + 0.2% Tween 80 at a volume not exceeding 100 µL intravenously through recto-orbital injection. Each animal was anaesthetized using Isoflurane (Piramal Critical Care Inc., Bethlehem, PA, USA) for 1–2 min before injection. Disposable sterilized syringes (Becton, Dickinson and Company, Franklin Lakes, NJ, USA) were used for blood collection as well as administration of PsA at a dose of 50 mg/kg and volume, adjusted to the mouse body weight, no greater than 100 µL for animal safety considerations. Blood samples of around 50–70 µL were collected through the tail vein in 600 µL Eppendorf tubes at time points 0.25, 0.75, and 1.5 h for groups 1 and 4, 0.083, 0.5, and 1 h for groups 2 and 5, in addition to 2 and 4 h for groups 3 and 6 following intravenous injection and subjected to immediate centrifugation. From the plasma, 15 µL was transferred into clean 600 µL Eppendorf tubes and immediately subjected to the extraction method listed above and analyzed using HPLC.

mCRPC CWR-R1ca-Luc cells = experiment: mCRPC recurrence prevention study after neoadjuvant DTX and ENZ and primary tumor excision; assay type: in vivo, athymic male nude mice; details: 60 days
Description: For the recurrence prevention study, nineteen 7–8-week-old athymic male nude mice (Strain Foxn^nu-Foxn^1+) were xenografted with 2 × 10^6 the mCRPC CWR-R1ca-Luc cells at the suprascapular region in 100 µL 1:1 serum-free Dulbecco’s Modified Eagle Medium (DMEM) medium-Matrigel. Mice were fed on an HFD (11.4% total fat, Cat# 7004, Envigo/Teklad, Madison, WI, USA) for 7 days before the tumor cells xenografting. When the tumors reached 100 mm^3, mice were subjected to weekly IV injections of 10 mg/kg docetaxel (DTX) (Combi-Blocks, San Diego, CA, USA) dissolved in Tween 80 (20 mg/mL) for four consecutive weeks, followed by daily IP injections of 5 mg/kg ENZ (Combi-Blocks, San Diego, CA, USA) in sterile PBS for three weeks. Following these neoadjuvant regimens, mice were randomly selected and placed into three groups. Groups 1 (n = 7) received daily oral doses of 20 mg/kg PsA (prepared in sterile PBS-DMSO 925:75). Group 2 (n = 5) received daily oral PsA 10 mg/kg. Group 3 (n = 7) received daily oral doses of PsA-free vehicle control. Treatments continued for 60 days. Isoflurane-anesthetized mice were subjected to weekly tumor monitoring using PerkinElmer IVIS Lumina Series III (Waltham, MA, USA) 30 min after an IP injection of (+)-luciferin (75 mg/kg, IP, PerkinElmer, Waltham, MA, USA) for efficiency assessment of excision surgery, tumor progression, and tumor metastasis. Following treatment regimen completion, mice were anesthetized using isoflurane (USP-vaporizer method, Matrix VIP-3000), exposure of animals in an anesthesia chamber at 3% isoflurane vaporization rate. Exposure time 2 min. Mice were then euthanized by cervical dislocation according to the American Veterinary Medical Association (AVMA) Guidelines for the Euthanasia of Animals: 2020 Edition, and tumors were collected. Tumors were snap frozen using Isopentane (J.T. Baker, Radnor, PA, USA) in liquid nitrogen before storage at −80 °C.

CC/C=C\[C@H](O)[C@H](O)C1=C(C)C(=O)[C@]2(O1)C(=O)N[C@@](OC)(C(=O)c1ccccc1)[C@@H]2O [PsA, pseurotin A]
plasma detectability over time by HPLC ([1]; IV 50 mg/kg): undetectable by the HPLC method after 2 h | C0 ([1]; both sexes, Swiss albino, mouse, plasma, IV 50 mg/kg, read-out: initial concentration range): 24600 to 34200 ng/mL | AUC(0-t) ([1]; both sexes, Swiss albino, mouse, plasma, single IV 50 mg/kg, 8 h fasting, non-compartmental, mean, read-out: AUC0–t): 19100 ng·h/mL | AUC(0-t) ([1]; both sexes, Swiss albino, mouse, plasma, single IV 50 mg/kg, 8 h fasting, non-compartmental, mean, read-out: AUCt–∞): 20900 ng·h/mL | C0 ([1]; both sexes, Swiss albino, mouse, plasma, single IV 50 mg/kg, 8 h fasting, non-compartmental, mean, read-out: C0, initial plasma concentration): 37300 ng/mL | Vd ([1]; both sexes, Swiss albino, mouse, plasma, IV 50 mg/kg, read-out: average volume of distribution (Vd)): 1.83 L/kg | MRT ([1]; both sexes, Swiss albino, mouse, plasma, single IV 50 mg/kg, 8 h fasting, non-compartmental, mean, read-out: MRT, mean residence time): 44.4 min | half-life ([1]; both sexes, Swiss albino, mouse, plasma, single IV 50 mg/kg, 8 h fasting, non-compartmental, mean, read-out: T1/2, elimination half-life (converted)): 31.8 min | Vd ([1]; both sexes, Swiss albino, mouse, plasma, single IV 50 mg/kg, 8 h fasting, non-compartmental, mean, read-out: Vd, volume of distribution): 1.83 L | AUMC, area under the moment curve ([1]; single IV 50 mg/kg, 8 h fasting, non-compartmental, mean): 15410 ng·h/mL | Distant recurrence Backbone, affected mice per group (mCRPC CWR-R1ca-Luc cells; PsA 10 mg/kg daily oral, n = 5): 1/5 | Distant recurrence Brain, affected mice per group (mCRPC CWR-R1ca-Luc cells; PsA 10 mg/kg daily oral, n = 5): 2/5 | Distant recurrence Femur, affected mice per group (mCRPC CWR-R1ca-Luc cells; PsA 10 mg/kg daily oral, n = 5): 1/5 | Distant recurrence Heart, affected mice per group (mCRPC CWR-R1ca-Luc cells; PsA 10 mg/kg daily oral, n = 5): 1/5 | Distant recurrence Kidney, affected mice per group (mCRPC CWR-R1ca-Luc cells; PsA 10 mg/kg daily oral, n = 5): 0/5 | Distant recurrence Liver, affected mice per group (mCRPC CWR-R1ca-Luc cells; PsA 10 mg/kg daily oral, n = 5): 1/5 | Distant recurrence Lung, affected mice per group (mCRPC CWR-R1ca-Luc cells; PsA 10 mg/kg daily oral, n = 5): 1/5 | Distant recurrence Spleen, affected mice per group (mCRPC CWR-R1ca-Luc cells; PsA 10 mg/kg daily oral, n = 5): 1/5 | Locoregional recurrence, affected mice per group (mCRPC CWR-R1ca-Luc cells; PsA 10 mg/kg daily oral, n = 5): one and 1/5 | Distant recurrence Backbone, affected mice per group (mCRPC CWR-R1ca-Luc cells; PsA 20 mg/kg daily oral, n = 7): 0/7 | Distant recurrence Brain, affected mice per group (mCRPC CWR-R1ca-Luc cells; PsA 20 mg/kg daily oral, n = 7): 2/7 | Distant recurrence Femur, affected mice per group (mCRPC CWR-R1ca-Luc cells; PsA 20 mg/kg daily oral, n = 7): 1/7 | Distant recurrence Heart, affected mice per group (mCRPC CWR-R1ca-Luc cells; PsA 20 mg/kg daily oral, n = 7): 0/7 | Distant recurrence Kidney, affected mice per group (mCRPC CWR-R1ca-Luc cells; PsA 20 mg/kg daily oral, n = 7): 0/7 | Distant recurrence Liver, affected mice per group (mCRPC CWR-R1ca-Luc cells; PsA 20 mg/kg daily oral, n = 7): 1/7 | Distant recurrence Lung, affected mice per group (mCRPC CWR-R1ca-Luc cells; PsA 20 mg/kg daily oral, n = 7): 0/7 | Distant recurrence Spleen, affected mice per group (mCRPC CWR-R1ca-Luc cells; PsA 20 mg/kg daily oral, n = 7): 0/7 | Locoregional recurrence, affected mice per group (mCRPC CWR-R1ca-Luc cells; PsA 20 mg/kg daily oral, n = 7): one and 1/7
